Reference: ChEMBL document CHEMBL1201862, “PubChem BioAssay data set” (2004)
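How tested: cells in 96-well plates exposed to compound for 48 hours at five concentrations. GI50 = concentration required for 50% inhibition of growth.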 Activity calls are given as the source filed them. Rule as the data show it: active = GI50 up to about 1.1 µM and inactive = higher.

Assays:
Test in all cases: growth of human tumour cells (NCI), 48 h
[1] = system: SF-539
[2] = system: UACC-257
[3] = system: SK-MEL-2
[4] = system: HL-60
[5] = system: NCI-H522
[6] = system: OVCAR-5
[7] = system: HT-29
[8] = system: RPMI-8226
[9] = system: HCC 2998
[10] = system: KM12
[11] = system: TK-10
[12] = system: MOLT-4
[13] = system: OVCAR-4
[14] = system: SW-620
[15] = system: EKVX
[16] = system: K562

Row | SMILES | GI50 [1] | GI50 [2] | GI50 [3] | GI50 [4] | GI50 [5] | GI50 [6] | GI50 [7] | GI50 [8] | GI50 [9] | GI50 [10] | GI50 [11] | GI50 [12] | GI50 [13] | GI50 [14] | GI50 [15] | GI50 [16]
1 | CCN(CC)C(=S)SCC(=O)Nc1nc2c(s1)CCCC2 | > 100 µM (inactive) | 36.9 µM (inactive) | > 100 µM (inactive) | 19.4 µM (inactive) | 28 µM (inactive) | > 100 µM (inactive) | 59.8 µM (inactive) | > 100 µM (inactive) | > 100 µM (inactive) | > 100 µM (inactive) | > 100 µM (inactive) | 41.4 µM (inactive) | > 100 µM (inactive) | > 100 µM (inactive) |  | 
2 | CC1Cc2c(N)nc(NN)nc2NC1=O (stereo not given) | > 100 µM (inactive) | > 100 µM (inactive) |  | > 100 µM (inactive) | > 100 µM (inactive) |  | > 100 µM (inactive) | > 100 µM (inactive) |  | > 100 µM (inactive) | > 100 µM (inactive) | > 100 µM (inactive) |  | > 100 µM (inactive) | > 100 µM (inactive) | > 100 µM (inactive)
3 | O=C1CC[C@@H](S(=O)(=O)c2ccccc2)[C@H](/C=C/c2ccccc2)O1 | > 100 µM (inactive) | > 100 µM (inactive) |  | > 100 µM (inactive) | > 100 µM (inactive) | > 100 µM (inactive) | > 100 µM (inactive) | > 100 µM (inactive) | > 100 µM (inactive) | > 100 µM (inactive) | > 100 µM (inactive) | > 100 µM (inactive) | > 100 µM (inactive) | > 100 µM (inactive) | > 100 µM (inactive) | > 100 µM (inactive)
4 | O=C(O)C1=NN=C(C(=O)O)NN1 | > 100 µM (inactive) | > 100 µM (inactive) | > 100 µM (inactive) | > 100 µM (inactive) | > 100 µM (inactive) | > 100 µM (inactive) | > 100 µM (inactive) | 43.9 µM (inactive) |  | > 100 µM (inactive) | > 100 µM (inactive) | > 100 µM (inactive) | > 100 µM (inactive) | 38.6 µM (inactive) | > 100 µM (inactive) | 72.9 µM (inactive)
5 | Nc1nnc(NC(=O)C2=NS(=O)(=O)c3cc(S(N)(=O)=O)c(Cl)cc3N2)[nH]1 | > 100 µM (inactive) | > 100 µM (inactive) |  |  | > 100 µM (inactive) | > 100 µM (inactive) | > 100 µM (inactive) | > 100 µM (inactive) | 0.752 µM (active) | > 100 µM (inactive) | > 100 µM (inactive) | > 100 µM (inactive) | > 100 µM (inactive) | > 100 µM (inactive) | > 100 µM (inactive) | > 100 µM (inactive)
6 | Cn1cc2ccccc2c1-c1nc(F)nc(OCC(=O)[C@H]2CCC3[C@@H]4CCC5=CC(=O)CC[C@]5(C)C4[C@@H](O)C[C@@]32C)n1 (stereo not given in full) | 17.8 µM (inactive) | 18.8 µM (inactive) | 13.2 µM (inactive) | 6.27 µM (inactive) | 15.2 µM (inactive) | 37.8 µM (inactive) | 21.6 µM (inactive) | 6.61 µM (inactive) | 25.6 µM (inactive) | 16.6 µM (inactive) | 23.1 µM (inactive) | 4.83 µM (inactive) | 14.9 µM (inactive) | 8.04 µM (inactive) | 23.4 µM (inactive) | 2.91 µM (inactive)
7 | CC[N+](C)(CC)CC(C)(C)C(=O)/C=C/c1ccc(/C=C/C(=O)C(C)(C)C[N+](C)(CC)CC)cc1 | > 100 µM (inactive) | > 100 µM (inactive) |  | > 100 µM (inactive) | > 100 µM (inactive) | > 100 µM (inactive) | > 100 µM (inactive) | > 100 µM (inactive) | > 100 µM (inactive) | > 100 µM (inactive) | > 100 µM (inactive) | > 100 µM (inactive) | > 100 µM (inactive) | > 100 µM (inactive) | > 100 µM (inactive) | > 100 µM (inactive)
8 | CC(=O)N1CC(=O)NC1=S | > 100 µM (inactive) | > 100 µM (inactive) | > 100 µM (inactive) | > 100 µM (inactive) | > 100 µM (inactive) | > 100 µM (inactive) | > 100 µM (inactive) | > 100 µM (inactive) |  | > 100 µM (inactive) | > 100 µM (inactive) | > 100 µM (inactive) | > 100 µM (inactive) | > 100 µM (inactive) | > 100 µM (inactive) | > 100 µM (inactive)
9 | NC(=O)c1ccccc1NC(=O)C(=O)C(C(=O)c1ccc(Cl)c(Cl)c1)C1OC(=O)c2ccccc21 (stereo not given) |  | 62.4 µM (inactive) |  | > 100 µM (inactive) |  | > 100 µM (inactive) | 34.8 µM (inactive) | 69.2 µM (inactive) | 49.8 µM (inactive) | 60.4 µM (inactive) |  | > 100 µM (inactive) | 43.3 µM (inactive) | 46.5 µM (inactive) | > 100 µM (inactive) | > 100 µM (inactive)
10 | COc1ccc2occ(CCC(=O)O)c2c1 | > 100 µM (inactive) | > 100 µM (inactive) |  | > 100 µM (inactive) |  |  | > 100 µM (inactive) | > 100 µM (inactive) | > 100 µM (inactive) |  | > 100 µM (inactive) | > 100 µM (inactive) | > 100 µM (inactive) | > 100 µM (inactive) | > 100 µM (inactive) | > 100 µM (inactive)
